One data set deals with HS19.10. The conditions noted are these: 2.0 mM L-glutamate, 250 μM PLP, 50 mM HEPES/K+, pH 8.0, 25 °C; DHAP varied.
Data set [1] has as its system N[C@@H](COP(=O)(O)O)C(=O)O. The data set is described as follows: purified protein. The conditions noted are these: 100 mM HEPES/K+, pH 8.0, 25 °C, 250 μM PLP.

For orientation: Km means the substrate concentration at which the rate is half of its maximum. In the case of `O=C(CO)COP(=O)(O)O` [DHAP], the Km in the data set with HS19.10 came out at 41 ± 2 µM.

One may read the kcat as the maximal rate divided by the concentration of active sites. “Cj1436 (Campylobacter jejuni subsp. jejuni NCTC 11168 = ATCC 700819)”: in data set [1], the kcat turned out to be 0.21 ± 0.02 s⁻¹.

The record behind these values is article PMC8524856 (Biochemistry, 2021).
